Results from ChEMBL document CHEMBL1155927, “Synthesis and evaluation of 5'-modified 2'-deoxyadenosine analogues as anti-hepatitis C virus agents” (Bioorg Med Chem Lett, 2008).
pEC50: −log10 of the molar value.

Columns and labels:
Hepatitis C virus = test: Antiviral activity against HCV assessed as inhibition of viral RNA replication in Huh7 cells; format: functional, organism-based, Hepacivirus hominis; conditions: Huh-7
[1] = Cytotoxicity in human Huh7 cells by XTT assay; format: cell-based, Huh-7

| Compound | pEC50 (Hepatitis C virus) | CC50 [1] [µM] |
| --- | --- | --- |
| COC(=O)CC[C@H]1O[C@@H](n2cnc3c(N)ncnc32)C[C@@H]1O | < 3.70 | – |
| CON(C)C(=O)CC[C@H]1O[C@@H](n2cnc3c(N)ncnc32)C[C@@H]1O | < 3.70 | – |
| O=C(CC[C@H]1O[C@@H](n2cnc3c(Cl)ncnc32)C[C@@H]1O)c1ccccc1 | 4.82 | 76.3 |
| Nc1ncnc2c1ncn2[C@H]1C[C@H](O)[C@@H](CCC(=O)c2ccccc2)O1 | < 3.70 | – |
| CON(C)C(=O)CC[C@H]1O[C@@H](n2cnc3c(Cl)ncnc32)C[C@@H]1O | 4.39 | > 200 |
| COC(=O)CC[C@H]1O[C@@H](n2cnc3c(Cl)ncnc32)C[C@@H]1O | 4.48 | > 200 |
